What follows are compounds tested against human GluN1/GluN2B NMDA receptors (Homo sapiens, UniProt Q05586+Q13224) (assay: Cell-based calcium flux (FLIPR) assay on cloned human NR1/NR2B ion channels expressed in mammalian cells). Details: standard assay; glutamate at ~EC80; FLIPR calcium flux.
How it was run: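 Calcium influx followed by FLIPR fluorescence after 5 min compound exposure and a further 5 min co-agonist challenge: 10 μM glycine with glutamate at ~EC80 (standard) or EC40 (HTS).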

human GluN1/GluN2B NMDA receptors, sequence (Q13224 27-1484, other chains not shown): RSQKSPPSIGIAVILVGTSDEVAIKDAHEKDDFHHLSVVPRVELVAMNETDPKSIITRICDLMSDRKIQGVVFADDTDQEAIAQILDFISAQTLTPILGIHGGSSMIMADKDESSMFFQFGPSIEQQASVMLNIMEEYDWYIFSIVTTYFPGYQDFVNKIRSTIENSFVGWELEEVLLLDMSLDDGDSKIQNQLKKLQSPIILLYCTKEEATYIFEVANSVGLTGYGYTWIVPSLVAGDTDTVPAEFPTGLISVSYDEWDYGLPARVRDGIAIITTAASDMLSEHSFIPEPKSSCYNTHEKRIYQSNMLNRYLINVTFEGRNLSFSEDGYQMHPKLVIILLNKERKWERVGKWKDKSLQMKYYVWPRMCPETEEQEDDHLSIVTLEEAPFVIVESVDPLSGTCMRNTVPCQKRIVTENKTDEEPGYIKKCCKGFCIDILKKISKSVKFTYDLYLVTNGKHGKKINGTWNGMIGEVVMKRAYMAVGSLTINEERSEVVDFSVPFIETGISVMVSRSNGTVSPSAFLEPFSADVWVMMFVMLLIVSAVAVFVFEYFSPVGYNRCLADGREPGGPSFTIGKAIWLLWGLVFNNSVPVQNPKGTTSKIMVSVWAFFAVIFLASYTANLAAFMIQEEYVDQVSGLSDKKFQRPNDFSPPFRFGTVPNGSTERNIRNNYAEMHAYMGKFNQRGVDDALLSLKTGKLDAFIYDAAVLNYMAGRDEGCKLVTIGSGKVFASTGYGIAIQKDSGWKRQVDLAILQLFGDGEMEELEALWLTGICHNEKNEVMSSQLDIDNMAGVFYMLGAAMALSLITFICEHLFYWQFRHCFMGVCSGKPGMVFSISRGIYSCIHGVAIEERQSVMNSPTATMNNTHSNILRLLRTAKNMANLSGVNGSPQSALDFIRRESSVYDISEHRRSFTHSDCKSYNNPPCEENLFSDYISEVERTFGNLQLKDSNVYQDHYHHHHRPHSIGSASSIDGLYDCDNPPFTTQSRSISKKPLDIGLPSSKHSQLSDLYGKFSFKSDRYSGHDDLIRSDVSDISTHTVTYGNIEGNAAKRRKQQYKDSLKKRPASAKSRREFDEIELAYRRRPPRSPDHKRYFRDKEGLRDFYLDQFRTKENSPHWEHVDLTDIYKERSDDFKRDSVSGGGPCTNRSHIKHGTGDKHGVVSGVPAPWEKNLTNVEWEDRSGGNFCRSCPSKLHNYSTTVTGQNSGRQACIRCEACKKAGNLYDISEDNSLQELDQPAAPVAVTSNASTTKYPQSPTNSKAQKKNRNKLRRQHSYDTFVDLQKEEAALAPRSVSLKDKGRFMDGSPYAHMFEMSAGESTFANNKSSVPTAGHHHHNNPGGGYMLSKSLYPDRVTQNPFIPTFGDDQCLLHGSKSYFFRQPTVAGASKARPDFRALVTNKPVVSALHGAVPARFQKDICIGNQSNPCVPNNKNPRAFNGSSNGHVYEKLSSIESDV

`Cc1nc(OCc2cn(-c3ccc(Cl)c(C(C)(F)F)c3)nn2)ncc1Cl` [Example 543, 5-Chloro-2-[[1-[4-chloro-3-(1,1-difluoroethyl)phenyl]triazol-4-yl]methoxy]-4-methyl-pyrimidine] and `Cc1nc(OCc2cn(-c3ccc(Cl)c(C(C)(F)F)c3)nn2)ncc1F` [Example 544, 2-[[1-[4-Chloro-3-(1,1-difluoroethyl)phenyl]triazol-4-yl]methoxy]-5-fluoro-4-methyl-pyrimidine] are the same in IC50: 0.015 µM for the first, 0.015 µM for the second.

Going from `Cc1cnc(OCc2cn(-c3ccc(Cl)c(C(C)(F)F)c3)nn2)nc1C` [Example 545, 2-[[1-[4-Chloro-3-(1,1-difluoroethyl)phenyl]triazol-4-yl]methoxy]-4,5-dimethyl-pyrimidine] to `Cc1cnc(OCc2cn(-c3ccc(F)c(C(C)(F)F)c3)nn2)nc1C` [Example 573, 2-[[1-[3-(1,1-Difluoroethyl)-4-fluoro-phenyl]triazol-4-yl]methoxy]-4,5-dimethyl-pyrimidine], the IC50 rises from 0.006 µM to 0.019 µM (3.2-fold). The first is the more potent here.

`Cc1cc(C)nc(OCc2cn(-c3ccc(Cl)c(C(C)(F)F)c3)nn2)n1` [Example 546, 2-[[1-[4-Chloro-3-(1,1-difluoroethyl)phenyl]triazol-4-yl]methoxy]-4,6-dimethyl-pyrimidine] and `CC(F)(F)c1cc(-n2cc(COc3nccc(N)n3)nn2)ccc1Cl` [Example 547, 2-[[1-[4-Chloro-3-(1,1-difluoroethyl)phenyl]triazol-4-yl]methoxy]pyrimidin-4-amine] are within 1.5-fold of each other in IC50: 0.024 µM for the first, 0.033 µM for the second.

Compared with `CNc1ccnc(OCc2cn(-c3ccc(Cl)c(C(C)(F)F)c3)nn2)n1` [Example 548, 2-[[1-[4-Chloro-3-(1,1-difluoroethyl)phenyl]triazol-4-yl]methoxy]-N-methyl-pyrimidin-4-amine], `CNc1ccnc(OCc2cn(-c3ccc(F)c(C(C)(F)F)c3)nn2)n1` [Example 581, 2-[[1-[3-(1,1-Difluoroethyl)-4-fluoro-phenyl]triazol-4-yl]methoxy]-N-methyl-pyrimidin-4-amine] is 1.7-fold lower in IC50: 0.055 µM for the first, 0.033 µM for the second. The second is the more potent here.

`CNc1nc(OCc2cn(-c3ccc(Cl)c(C(C)(F)F)c3)nn2)ncc1F` [Example 549, 2-[[1-[4-Chloro-3-(1,1-difluoroethyl)phenyl]triazol-4-yl]methoxy]-5-fluoro-N-methyl-pyrimidin-4-amine] and `CNc1nc(OCc2cn(-c3ccc(F)c(C(C)(F)F)c3)nn2)ncc1F` [Example 578, 2-[[1-[3-(1,1-Difluoroethyl)-4-fluoro-phenyl]triazol-4-yl]methoxy]-5-fluoro-N-methyl-pyrimidin-4-amine] are within 1.5-fold of each other in IC50: 0.094 µM for the first, 0.14 µM for the second.

Going from `CC(=O)c1cnc(OCc2cn(-c3ccc(Cl)c(C(C)(F)F)c3)nn2)nc1` [Example 550, 1-[2-[[1-[4-Chloro-3-(1,1-difluoroethyl)phenyl]triazol-4-yl]methoxy]pyrimidin-5-yl]ethanone] to `CC(F)(F)c1cc(-n2cc(COc3ncc(C4CC4)cn3)nn2)ccc1Cl` [Example 552, 2-[[1-[4-Chloro-3-(1,1-difluoroethyl)phenyl]triazol-4-yl]methoxy]-5-cyclopropyl-pyrimidine], the IC50 rises from 0.016 µM to 0.086 µM (5.4-fold).

Compared with `CC(F)(F)c1cc(-n2cc(COc3nccc(N4CCCC4)n3)nn2)ccc1Cl` [Example 553, 2-[[1-[4-Chloro-3-(1,1-difluoroethyl)phenyl]triazol-4-yl]methoxy]-4-pyrrolidin-1-yl-pyrimidine], `CC(F)(F)c1cc(-n2cc(COc3nccc(N)n3)nn2)ccc1F` [Example 580, 2-[[1-[3-(1,1-Difluoroethyl)-4-fluoro-phenyl]triazol-4-yl]methoxy]pyrimidin-4-amine] is 2-fold higher in IC50: 0.043 µM for the first, 0.088 µM for the second. The first is the more potent here.

Going from `CC(F)(F)c1cc(-n2cc(COc3ccccn3)nn2)ccc1F` [Example 554, 2-[[1-[3-(1,1-Difluoroethyl)-4-fluoro-phenyl]triazol-4-yl]methoxy]pyridine] to `Cc1ccnc(OCc2cn(-c3ccc(F)c(C(C)(F)F)c3)nn2)c1` [Example 557, 2-[[1-[3-(1,1-Difluoroethyl)-4-fluoro-phenyl]triazol-4-yl]methoxy]-4-methyl-pyridine], the IC50 falls from 1.64 µM to 0.246 µM (6.7-fold).

First: CC(F)(F)c1cc(-n2cc(COc3ncccc3F)nn2)ccc1F [Example 555, 2-[[1-[3-(1,1-Difluoroethyl)-4-fluoro-phenyl]triazol-4-yl]methoxy]-3-fluoro-pyridine]
Second: COc1ncccc1OCc1cn(-c2ccc(F)c(C(C)(F)F)c2)nn1 [Example 561, 3-[[1-[3-(1,1-Difluoroethyl)-4-fluoro-phenyl]triazol-4-yl]methoxy]-2-methoxy-pyridine]
The IC50 of the first is 1.8-fold lower: 0.265 µM for the first, 0.476 µM for the second. The first is the more potent here.

Compared with `Cc1cccc(OCc2cn(-c3ccc(F)c(C(C)(F)F)c3)nn2)n1` [Example 556, 2-[[1-[3-(1,1-Difluoroethyl)-4-fluoro-phenyl]triazol-4-yl]methoxy]-6-methyl-pyridine], `Cc1ccc(OCc2cn(-c3ccc(F)c(C(C)(F)F)c3)nn2)nc1C` [Example 560, 6-[[1-[3-(1,1-Difluoroethyl)-4-fluoro-phenyl]triazol-4-yl]methoxy]-2,3-dimethyl-pyridine] is 1.9-fold lower in IC50: 0.098 µM for the first, 0.052 µM for the second. The second is the more potent here.

Going from `Cc1ccc(OCc2cn(-c3ccc(F)c(C(C)(F)F)c3)nn2)nc1` [Example 558, 2-[[1-[3-(1,1-Difluoroethyl)-4-fluoro-phenyl]triazol-4-yl]methoxy]-5-methyl-pyridine] to `CC(F)(F)c1cc(-n2cc(COc3ccc(C(F)(F)F)cn3)nn2)ccc1F` [Example 559, 2-[[1-[3-(1,1-Difluoroethyl)-4-fluoro-phenyl]triazol-4-yl]methoxy]-5-(trifluoromethyl)pyridine], the IC50 rises from 0.125 µM to 0.812 µM (6.5-fold).

Going from `CC(F)(F)c1cc(-n2cc(COc3ncc(C(F)F)cn3)nn2)ccc1F` [Example 562, 2-[[1-[3-(1,1-Difluoroethyl)-4-fluoro-phenyl]triazol-4-yl]methoxy]-5-(difluoromethyl)pyrimidine] to `CC(F)(F)c1cc(-n2cc(COc3ncc(OC(F)F)cn3)nn2)ccc1F` [Example 572, 2-[[1-[3-(1,1-Difluoroethyl)-4-fluoro-phenyl]triazol-4-yl]methoxy]-5-(difluoromethoxy)pyrimidine], the IC50 rises from 0.014 µM to 0.025 µM (1.8-fold). The first is the more potent here.

First: CC(F)(F)c1cc(-n2cc(COc3nccc(C(F)F)n3)nn2)ccc1F [Example 563, 2-[[1-[3-(1,1-Difluoroethyl)-4-fluoro-phenyl]triazol-4-yl]methoxy]-4-(difluoromethyl)pyrimidine]
Second: CC(F)(F)c1cc(-n2cc(COc3nccc(CO)n3)nn2)ccc1F [Example 568, [2-[[1-[3-(1,1-Difluoroethyl)-4-fluoro-phenyl]triazol-4-yl]methoxy]pyrimidin-4-yl]methanol]
The IC50 of the first is 1.9-fold higher: 0.048 µM for the first, 0.025 µM for the second.

First: CC(F)(F)c1cc(-n2cc(COc3nccc(C(F)(F)F)n3)nn2)ccc1F [Example 564, 2-[[1-[3-(1,1-Difluoroethyl)-4-fluoro-phenyl]triazol-4-yl]methoxy]-4-(trifluoromethyl)pyrimidine]
Second: CN(C)c1ccnc(OCc2cn(-c3ccc(F)c(C(C)(F)F)c3)nn2)n1 [Example 582, 2-[[1-[3-(1,1-Difluoroethyl)-4-fluoro-phenyl]triazol-4-yl]methoxy]-N,N-dimethyl-pyrimidin-4-amine]
The IC50 of the first is 9.7-fold higher: 0.272 µM for the first, 0.028 µM for the second.

Compared with `CC(C)(O)c1cnc(OCc2cn(-c3ccc(F)c(C(C)(F)F)c3)nn2)nc1` [Example 566, 2-[2-[[1-[3-(1,1-Difluoroethyl)-4-fluoro-phenyl]triazol-4-yl]methoxy]pyrimidin-5-yl]propan-2-ol], `COC(C)(C)c1cnc(OCc2cn(-c3ccc(F)c(C(C)(F)F)c3)nn2)nc1` [Example 567, 2-[[1-[3-(1,1-Difluoroethyl)-4-fluoro-phenyl]triazol-4-yl]methoxy]-5-(1-methoxy-1-methyl-ethyl)pyrimidine] is 580-fold higher in IC50: 0.008 µM for the first, 4.63 µM for the second. The first is the more potent here.

Compared with `COCc1cnc(OCc2cn(-c3ccc(F)c(C(C)(F)F)c3)nn2)nc1` [Example 569, 2-[[1-[3-(1,1-Difluoroethyl)-4-fluoro-phenyl]triazol-4-yl]methoxy]-5-(methoxymethyl)pyrimidine], `CC(F)(F)c1cc(-n2cc(COc3ncc(CO)cn3)nn2)ccc1F` [Example 571, [2-[[1-[3-(1,1-difluoroethyl)-4-fluoro-phenyl]triazol-4-yl]methoxy]pyrimidin-5-yl]methanol] is 4.2-fold lower in IC50: 0.089 µM for the first, 0.021 µM for the second. The second is the more potent here.

`COCc1ccnc(OCc2cn(-c3ccc(F)c(C(C)(F)F)c3)nn2)n1` [Example 570, 2-[[1-[3-(1,1-Difluoroethyl)-4-fluoro-phenyl]triazol-4-yl]methoxy]-4-(methoxymethyl)pyrimidine] and `Cc1nc(OCc2cn(-c3ccc(F)c(C(C)(F)F)c3)nn2)ncc1Cl` [Example 574, 5-Chloro-2-[[1-[3-(1,1-difluoroethyl)-4-fluoro-phenyl]triazol-4-yl]methoxy]-4-methyl-pyrimidine] are within 1.5-fold of each other in IC50: 0.011 µM for the first, 0.01 µM for the second.

Compared with `Cc1nc(OCc2cn(-c3ccc(F)c(C(C)(F)F)c3)nn2)ncc1F` [Example 575, 2-[[1-[3-(1,1-Difluoroethyl)-4-fluoro-phenyl]triazol-4-yl]methoxy]-5-fluoro-4-methyl-pyrimidine], `Cc1cnc(OCc2cn(-c3ccc(F)c(C(C)(F)F)c3)nn2)nc1N` [Example 576, 2-[[1-[3-(1,1-Difluoroethyl)-4-fluoro-phenyl]triazol-4-yl]methoxy]-5-methyl-pyrimidin-4-amine] is 2.8-fold higher in IC50: 0.006 µM for the first, 0.017 µM for the second. The first is the more potent here.

`CNc1nc(OCc2cn(-c3ccc(F)c(C(C)(F)F)c3)nn2)ncc1C` [Example 577, 2-[[1-[3-(1,1-Difluoroethyl)-4-fluoro-phenyl]triazol-4-yl]methoxy]-N,5-dimethyl-pyrimidin-4-amine] and `Cc1cnc(OCc2cn(-c3ccc(F)c(C(C)(F)F)c3)nn2)nc1N(C)C` [Example 579, 2-[[1-[3-(1,1-Difluoroethyl)-4-fluoro-phenyl]triazol-4-yl]methoxy]-N,N,5-trimethyl-pyrimidin-4-amine] are within 1.5-fold of each other in IC50: 0.128 µM for the first, 0.087 µM for the second.

Work on `CC(F)(F)c1cc(-n2cc(COc3ncc(C#N)cn3)nn2)ccc1F` [Example 583, 2-[[1-[3-(1,1-Difluoroethyl)-4-fluoro-phenyl]triazol-4-yl]methoxy]pyrimidine-5-carbonitrile] yielded an IC50 of 0.067 µM.

Reference: US10233173B2, “Substituted 1,2,3-triazoles as NR2B-selective NMDA modulators” (JANSSEN PHARMACEUTICA NV, priority 2016, dated 2019)
